In patent US5849560A, “Proteases causing degradation of amyloid β-protein precursor” (priority 1993, dated 1998):
Non-standard residues stand in square brackets, D forms with d. Residues, ends and D or L forms follow the SMILES beside them. *: point of attachment. Sta = CC(C)C[C@H](N)[C@@H](O)CC(=O)O; Isovaleryl = CC(C)CC(=O)*; Cbz = O=C(OCc1ccccc1)*; CH2F = FC*

How the values were obtained:
[1] = target: T1, "Met cut" metalloprotease (AD metalloprotease) purified from AD brain homogenate (Homo sapiens, UniProt P52888); assay: Effect of additives on synthetic peptide substrate (P1) degrading activity of the purified Met cut metalloprotease; format: biochemical; conditions: for effect on metalloprotease activity (in words): concentrations as in Table II, divalent ions at 2 mM; for remaining activity at 5000 µM: reagent conc. 5.0 mM; for remaining activity at 150 µM: reagent conc. 0.15 mM; for remaining activity at 140 µM: reagent conc. 0.14 mM; for remaining activity at 200 µM: reagent conc. 0.2 mM
T1 construct: isolate and purify an AD metalloprotease from AD brain homogenate; from tissue; host or cells: brain of Alzheimer's disease patients
T1 sequence (P52888 whole entry): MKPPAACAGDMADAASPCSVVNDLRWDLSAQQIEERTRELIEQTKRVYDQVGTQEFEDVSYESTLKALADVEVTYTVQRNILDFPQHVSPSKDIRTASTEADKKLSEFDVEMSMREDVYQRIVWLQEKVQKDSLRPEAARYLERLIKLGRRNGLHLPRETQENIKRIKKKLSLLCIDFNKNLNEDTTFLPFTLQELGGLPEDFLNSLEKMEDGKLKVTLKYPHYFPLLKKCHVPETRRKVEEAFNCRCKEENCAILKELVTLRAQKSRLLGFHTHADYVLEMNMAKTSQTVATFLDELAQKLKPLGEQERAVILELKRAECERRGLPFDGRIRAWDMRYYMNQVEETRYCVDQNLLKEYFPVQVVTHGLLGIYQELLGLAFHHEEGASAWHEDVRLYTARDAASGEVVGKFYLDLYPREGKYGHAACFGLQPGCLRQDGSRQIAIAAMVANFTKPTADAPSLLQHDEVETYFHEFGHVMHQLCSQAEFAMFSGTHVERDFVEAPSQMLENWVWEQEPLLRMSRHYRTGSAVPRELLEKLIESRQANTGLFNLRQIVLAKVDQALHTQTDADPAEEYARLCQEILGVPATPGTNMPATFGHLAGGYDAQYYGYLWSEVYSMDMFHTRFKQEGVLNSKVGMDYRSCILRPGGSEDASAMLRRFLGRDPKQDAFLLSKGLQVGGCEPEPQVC
Description: The different protease fractions are monitored for proteolytic activity against iodinated peptide "P1". Incubations are carried out at 37° C. in 50 mM Tris-Cl, pH 7.4, in the presence of 1 mM MgCl2 +1 mM DTT. The proteolytic products are separated by TLC on cellulose microcrystalline plates, using n-butanol:pyridine:acetic acid:water, 15:10:3:12 (v/v), as a solvent, followed by autoradiography. […] ID NO. 1] to His-Ser-Glu-Val-Lys-Met [SEQ, ID NO. 2] were quantified with a Molecular Dynamics ImageQuant™ v3.0 scanning densitometer or a Bioscan system 200 imaging scanner. […] One unit of Met cut metalloprotease activity under these conditions was defined as converting 1 μg of P1 to His-Ser-Glu-Val-Lys-Met [SEQ. ID NO. 2] in 1 min.
Referring now to Table II, the effects of various additives on the activity degrading the synthetic substrate (P1) were examined. The metalloprotease sample as incubated with the appropriate amount of additive and assayed for remaining activity, as described above. Control reactions with no reagent, or containing only the solvent of the reagent were always included. Reactions were allowed to proceed for 45 min at 4° C., except E-64 which was incubated for 15 or 30 min (b and c respectively) and iodoacetamide was incubated at 37° C. for 30 min.
Stock solutions of phenylmethylsulfonyl fluoride (PMSF)", E-64, 1,10 phenanthroline, calpain inhibitor, Z-Phe-Phe-CH2 F (Enzyme Systems Products, Livermore, Calif.) were dissolved in ethanol. […] ZINCOV (Calbiochem, Calif.) and phosphoramidon (Sigma, USA), were also dissolved in water. Pepstatin A was dissolved in methanol. The susceptibility of the protease activity to various divalent cations was determined by including metals at a final concentration of 2 mM in the assay reaction mixture.

[2] = test system: Ca2+ activated serine protease (serine AD proteolytic factor) from AD brain; assay: Peptide degradation assay (125I-P1, TLC) with the serine AD proteolytic factor and inhibitors; format: biochemical, human
[3] = reagent conc. 1.0 mM, 45 min at 4° C.
[4] = concentrations as in Table II (iodoacetamide 8.0 mM, leupeptin 0.2 mM), read-out: partial inhibitory effect on the protease

Molecule: O[C@H](CS)[C@H](O)CS (racemic) [Dithiothreitol, dithiothreitol]
- effect on metalloprotease activity (in words) [1]: required for the activity
- % Activity Remaining ([1]; reagent conc. 0.0 mM): 0%
- remaining activity at 1000 µM [1, 3]: 100%
- remaining activity at 2500 µM ([1]; reagent conc. 2.5 mM): 70.8%
- remaining activity at 5000 µM ([1]; 45 min at 4° C.): 25.5%

Molecule: c1cnc2c(c1)ccc1cccnc12 [1,10 phenanthroline]
- effect on metalloprotease activity (in words) [1]: Strong inhibition
- remaining activity at 4000 µM ([1]; reagent conc. 4.0 mM, 45 min at 4° C.): 0%

Molecule: CC(C)C[C@H](NC(=O)[C@@H](O)[C@H](N)Cc1ccccc1)C(=O)O [Bestatin]
- remaining activity at 2 µM ([1]; reagent conc. 0.002 mM, 45 min at 4° C.): 60%

Molecule: C[C@H](NC(=O)[C@H](C)NC(CCc1ccccc1)C(=O)O)C(=O)N[C@@H](Cc1ccccc1)C(=O)Nc1ccc(C(=O)O)cc1 (stereo partly drawn) [CPP-Ala-Ala-Phe-pAB]
- effect on metalloprotease activity (in words) [1]: strongly inhibited
- remaining activity at 15 µM ([1]; reagent conc. 0.015 mM, 45 min at 4° C.): 47.5%
- remaining activity at 150 µM ([1]; 45 min at 4° C.): 28%

Molecule: CC(C)CC(NC(=O)C1OC1C(=O)O)C(=O)NCCCCN=C(N)N (stereo not shown) [E-64]
- effect on metalloprotease activity (in words) [1]: less
- remaining activity at 140 µM ([1]; incubated 15 min (b)): 57.5%
- remaining activity at 140 µM ([1]; incubated 30 min (c)): 27.3%

Molecule: O=C(O)CN(CCOCCOCCN(CC(=O)O)CC(=O)O)CC(=O)O [EGTA]
- effect on metalloprotease activity (in words) [1]: Strong inhibition
- remaining activity at 7500 µM ([1]; reagent conc. 7.5 mM, 45 min at 4° C.): 0%
- effect on cleavage of 125I-P1 by the serine AD proteolytic factor (in words) [2]: prevent cleavage

Molecule: O=C(O)c1cc[c]([Hg][OH])cc1 [Hydroxymercurybenzoate, hydroxymercurybenzoate]
- effect on metalloprotease activity (in words) [1]: strong inhibition
- % Activity Remaining ([1]; reagent conc. 1.6 mM, 45 min at 4° C.): 0%
- reversal of inhibition by the reducing agent (DTT) ([1]; stoichiometrically increasing concentrations of DTT): readily reversed

Molecule: NC(=O)CI [Iodoacetamide]
- inhibition at 8000 µM [1, 4]: 34%
- remaining activity at 8000 µM ([1]; reagent conc. 8.0 mM, 37° C. for 30 min): 66%

Molecule: CC(=O)N[C@@H](CC(C)C)C(=O)N[C@@H](CC(C)C)C(=O)N[C@H](C=O)CCCNC(=N)N [Leupeptin]
- inhibition at 200 µM [1, 4]: 36.3%
- remaining activity at 200 µM ([1]; 45 min at 4° C.): 63.7%

Molecule: CCN1C(=O)C=CC1=O [N-ethylmaleimide]
- effect on metalloprotease activity (in words) [1]: strong inhibition
- remaining activity at 5000 µM ([1]; 45 min at 4° C.): 7.9%

Molecule: O=S(=O)(F)Cc1ccccc1 [PMSF, phenylmethylsulfonyl fluoride]
- % Activity Remaining ([1]; reagent conc. 7.0 mM, 45 min at 4° C.): 100%

Molecule: CC(C)CC(=O)N[C@H](C(=O)N[C@H](C(=O)N[C@@H](CC(C)C)[C@@H](O)CC(=O)N[C@@H](C)C(=O)N[C@@H](CC(C)C)[C@@H](O)CC(=O)O)C(C)C)C(C)C [Pepstatin A] (Isovaleryl-VV[Sta]A[Sta]-OH)
- remaining activity at 150 µM ([1]; 45 min at 4° C.): 100%

Molecule: CC(C)C[C@H](NP(=O)(O)O[C@@H]1O[C@@H](C)[C@H](O)[C@@H](O)[C@H]1O)C(=O)N[C@@H](Cc1c[nH]c2ccccc12)C(=O)O [Phosphoramidon]
- remaining activity at 1000 µM [1, 3]: 89.5%

Molecule: O=C(N[C@@H](Cc1ccccc1)C(=O)N[C@@H](Cc1ccccc1)C(=O)CF)OCc1ccccc1 [Z-Phe-Phe-CH2F] (Cbz-Phe-Phe-CH2F)
- remaining activity at 200 µM ([1]; 45 min at 4° C.): 82.7%

Molecule: CC(C)CC(C(=O)NO)C(=O)N[C@@H](C)C(=O)NCC(N)=O (stereo partly shown) [ZINCOV]
- effect on metalloprotease activity (in words) [1]: Strong inhibition
- % Activity Remaining [1, 3]: 42.4%

Molecule: Aprotinin
- % Activity Remaining ([1]; reagent conc. 0.03 mM, 45 min at 4° C.): 100%

Molecule: albumin
- effect on cleavage of 125I-P1 by the serine AD proteolytic factor (in words) [2]: did not influence the activity

B1: protease nexin 1: protease nexin 1 (protein, UniProt P07093 20-398, looked up)
Glia-derived nexin: SHFNPLSLEELGSNTGIQVFNQIVKSRPHDNIVISPHGIASVLGMLQLGADGRTKKQLAMVMRYGVNGVGKILKKINKAIVSKKNKDIVTVANAVFVKNASEIEVPFVTRNKDVFQCEVRNVNFEDPASACDSINAWVKNETRDMIDNLLSPDLIDGVLTRLVLVNAVYFKGLWKSRFQPENTKKRTFVAADGKSYQVPMLAQLSVFRCGSTSAPNDLWYNFIELPYHGESISMLIALPTESSTPLSAIIPHISTKTIDSWMSIMVPKRVQVILPKFTAVAQTDLKEPLKVLGITDMFDSSKANFAKITTGSENLHVSHILQKAKIEVSEDGTKASAATTAILIARSSPPWFIVDRPFLFFIRHNPTGAVLFMGQINKP
- effect on cleavage of 125I-P1 by the serine AD proteolytic factor (in words) [2]: did not influence the activity

B2: ACT: serine protease inhibitor α1-antichymotrypsin (Calbiochem) (protein, UniProt P01011 24-423, looked up)
Alpha-1-antichymotrypsin: HPNSPLDEENLTQENQDRGTHVDLGLASANVDFAFSLYKQLVLKAPDKNVIFSPLSISTALAFLSLGAHNTTLTEILKGLKFNLTETSEAEIHQSFQHLLRTLNQSSDELQLSMGNAMFVKEQLSLLDRFTEDAKRLYGSEAFATDFQDSAAAKKLINDYVKNGTRGKITDLIKDLDSQTMMVLVNYIFFKAKWEMPFDPQDTHQSRFYLSKKKWVMVPMMSLHHLTIPYFRDEELSCTVVELKYTGNASALFILPDQDKMEEVEAMLLPETLKRWRDSLEFREIGELYLPKFSISRDYNLNDILLQLGIEEAFTSKADLSGITGARNLAVSQVVHKAVLDVFEEGTEASAATAVKITLLSALVETRTIVRFNRPFLMIIVPTDTQNIFFMSKVTNPKQA
- effect on cleavage of 125I-P1 by the serine AD proteolytic factor (in words) [2]: inhibited cleavage

B3: Soybean Trypsin Inhibitor: Soybean Trypsin Inhibitor, protease inhibitor tested in Table II (protein, UniProt P01070 25-205, looked up)
Trypsin inhibitor A: DFVLDNEGNPLENGGTYYILSDITAFGGIRAAPTGNERCPLTVVQSRNELDKGIGTIISSPYRIRFIAEGHPLSLKFDSFAVIMLCVGIPTEWSVVEDLPEGPAVKIGENKDAMDGWFRLERVSDDEFNNYKLVFCPQQAEDDKCGDIGISIDHDDGTRRLVVSKNKPLVVQFQKLDKESL
- % Activity Remaining ([1]; reagent conc. 0.01 mM, 45 min at 4° C.): 100%
